# Source: US8614215B2, “Quinoxaline inhibitors of phosphoinositide-3-kinases (PI3Ks)” (Merck Serono SA, priority 2007, dated 2013)
# Tests used:
# [1] = test system: Human recombinant GST-PI3K; assay: PI3K induced-lipid phosphorylation, neomycin-SPA scintillation proximity assay; assay type: biochemical; details: Human recombinant GST-PI3K, SPA
# [2] = test system: IgM-induced Akt phosphorylation in B cell; assay: IgM-induced Akt phosphorylation in B cell (PBMC, flow cytometry); assay type: cell-based; details: human PBMC, CD19+ IgM+ B cells, read-out: IC50 μM, inhibition of IgM-induced Akt phosphorylation
# Description: Human PBMC were prepared from a Buffy coat (Geneve Hospital) after a Ficoll gradient (Ficoll-Paque™ Plus PHARMACIA ref: 17-1440-03).
# Cell concentration was adjusted to 10^6 cells per mL in RPMI (GIBCO Ref: 72400-21) without serum. Before stimulation, 90 μl of PBMC suspension was incubated with 10 μl of diluted compound in a 96 well round bottom plate for 20 minutes at 37° C.
# For B cell activation, 30 μl of Fab′2 Goat anti IgM (Jackson Immuno-research) at10 μg/mL was added to each well. After 5 minutes, cell activation was stopped with 4% paraformaldehyde (10 minutes at room temperature).
# Fixed PBMC were then treated for 20 minutes with 0.15% Triton, washed twice with PBS and permeabilized with 50% methanol for 15 minutes.
# PBMC were washed twice in PBS, resuspended in: PBS-4% FCS and incubated with anti P-Akt ( 1/100 dilution) for one h at room temperature.
# After one wash, PBMC were further stained for 30 minutes with a mixture of anti-CD19-PE (BD Biosciences), anti-IgM-FITC (BD Biosciences) and goat anti rabbit IgG-Alexa 647 (Molecular probe).
# After washing, PBMC (Peripheral Blood Mononuclear Cells) were analysed on a FACSCalibur instrument (BD Biosciences) equipped with a 633 helium-neon laser, or stored at 4° C. for further analysis. 510^3 B cells events were gathered per sample in the CD19 positive region.
# For the analysis, a threshold was applied on P-Akt histogram of CD19+ IgM+ lymphocytes cells from the non stimulated samples and the percentage of cells above this threshold was determined for each sample.
SMILES,IC50 [1],IC50 [2]
"COc1ccc(CC2CCOCC2)c(Nc2nc3ccccc3nc2NS(=O)(=O)c2cn(C)cn2)c1 [Example 7, N-(3-{[5-methoxy-2-(tetrahydro-2H-pyran-4-ylmethyl)phenyl]amino}quinoxalin-2-yl)-1-methyl-1H-imidazole-4-sulfonamide]",49 nM,0.02 µM
COC(=O)c1ccc(OC)cc1Nc1nc2ccccc2nc1NS(=O)(=O)c1cccnc1 [Example 2],88 nM,0.04 µM
"COc1ccc(CC2CCC(O)CC2)c(Nc2nc3ccccc3nc2NS(=O)(=O)c2cccnc2)c1 (stereo not drawn) [Example 23, N-[3-({2-[(4-hydroxycyclohexyl)methyl]-5-methoxyphenyl}amino)quinoxalin-2-yl]pyridine-3-sulfonamide]",20 nM,0.017 µM
"COc1ccc(CC2CCOCC2)c(Nc2nc3ccccc3nc2NS(C)(=O)=O)c1 [Example 8, N-(3-{[5-methoxy-2-(tetrahydro-2H-pyran-4-ylmethyl)phenyl]amino}quinoxalin-2-yl)methanesulfonamide]",130 nM,0.07 µM
"COc1ccc(CC2CCOCC2)c(Nc2nc3ccccc3nc2NS(=O)(=O)c2ccc(CN(C)C)cc2)c1 [Example 86, 4-[(dimethylamino)methyl]-N-(3-{[methoxy-2-(tetrahydro-2H-pyran-4-ylmethyl)phenyl]amino}quinoxalin-2-yl)benzenesulfonamide]",–,0.013 µM
"COc1ccc(CC2CCOCC2)c(Nc2nc3ccccc3nc2NS(=O)(=O)c2cccnc2)c1 [Example 9, N-(3-{[5-methoxy-2-(tetrahydro-2H-pyran-4-ylmethyl)phenyl]amino}quinoxalin-2-yl)pyridine-3-sulfonamide]",27 nM,0.01 µM
COc1ccc(CC2CCN(C(C)=O)CC2)c(Nc2nc3ccccc3nc2NS(=O)(=O)c2cccnc2)c1 [Example 17],51 nM,0.037 µM
"CCCS(=O)(=O)Nc1nc2ccccc2nc1Nc1cc(OC)ccc1CCS(C)(=O)=O [Example 53, N-[3-({5-Methoxy-2-[2-(methylsulfonyl)ethyl]phenyl}amino)quinoxalin-2-yl]propane-1-sulfonamide]",87 nM,–
"COc1ccc(CC2CCN(C(C)=O)CC2)c(Nc2nc3ccccc3nc2NS(=O)(=O)c2cn(C)cn2)c1 [Example 16, N-[3-({2-[(1-acetylpiperidin-4-yl)methyl]-5-methoxyphenyl}amino)quinoxalin-2-yl]-1-methyl-1H-imidazole-4-sulfonamide]",89 nM,0.076 µM
"COc1ccc(CC2CCCCC2)c(Nc2nc3ccccc3nc2NS(=O)(=O)c2ccc(CN(C)C)cc2)c1 [Example 87, N-(3-{[2-(cyclohexylmethyl)-5-methoxyphenyl]amino}quinoxalin-2-yl)-4-[(dimethylamino)methyl]benzenesulfonamide]",760 nM,–
"COc1ccc(CC2CCSCC2)c(Nc2nc3ccccc3nc2NS(=O)(=O)c2ccc(CN(C)C)cc2)c1 [Example 88, 4-[(dimethylamino)methyl]-N-(3-{[5-methoxy-2-(tetrahydro-2H-thiopyran-4-ylmethyl)phenyl]amino}quinoxalin-2-yl)benzenesulfonamide]",35 nM,–
"COCCc1ccc(OC)cc1Nc1nc2ccccc2nc1NS(=O)(=O)c1cn(C)c(CS(C)(=O)=O)n1 [Example 79, N-(3-{[5-Methoxy-2-(2-methoxyethyl)phenyl]amino}quinoxalin-2-yl)-1-methyl-2-[(methylsulfonyl)methyl]-1H-imidazole-4-sulfonamide]",200 nM,–
COc1ccc(CCCO)c(Nc2nc3ccccc3nc2NS(=O)(=O)c2cccc(NC(=O)COCc3ccccc3)c2)c1 [Example 72],480 nM,–
"COc1ccc(CCO)c(Nc2nc3ccccc3nc2NS(=O)(=O)c2ccc(C)[n+]([O-])c2)c1 [Example 33, N-(3-{[2-(2-Hydroxyethyl)-5-methoxyphenyl]amino}quinoxalin-2-yl)-6-methylpyridine-3-sulfonamide 1-oxide]",106 nM,–
"COc1ccc(CCS(C)(=O)=O)c(Nc2nc3ccccc3nc2NS(=O)(=O)c2cn(C)cn2)c1 [Example 40, N-[3-({5-Methoxy-2-[2-(methylsulfonyl)ethyl]phenyl}amino)quinoxalin-2-yl]-1-methyl-1H-imidazole-4-sulfonamide]",84 nM,–
"COc1ccc(CCCS(C)(=O)=O)c(Nc2nc3ccccc3nc2NS(=O)(=O)c2cn(C)cn2)c1 [Example 68, N-[3-({5-Methoxy-2-[3-(methylsulfonyl)propyl]phenyl}amino)quinoxalin-2-yl]-1-methyl-1H-imidazole-4-sulfonamide]",50 nM,–
"COC(=O)c1ccc(OC)cc1Nc1nc2ccccc2nc1NS(=O)(=O)c1cn(C)cn1 [Example 1, methyl 4-methoxy-2-[(3-{[(1-methyl-1H-imidazol-4-yl)sulfonyl]amino}quinoxalin-2-yl)amino]benzoate]",21 nM,0.07 µM
"COc1ccc(CCS(C)(=O)=O)c(Nc2nc3ccccc3nc2NS(=O)(=O)c2c(C)noc2C)c1 [Example 54, N-[3-({5-Methoxy-2-[2-(methylsulfonyl)ethyl]phenyl}amino)quinoxalin-2-yl]-3,5-dimethylisoxazole-4-sulfonamide]",190 nM,–
"COc1ccc(CC2CC(C)(C)N(C)C(C)(C)C2)c(Nc2nc3ccccc3nc2NS(=O)(=O)c2cn(C)cn2)c1 [Example 14, N-[3-({5-methoxy-2-[(1,2,2,6,6-pentamethylpiperidin-4-yl)methyl]phenyl}amino)quinoxalin-2-yl]-1-methyl-1H-imidazole-4-sulfonamide]",420 nM,–
"COc1ccc(CCO)c(Nc2nc3ccccc3nc2NS(=O)(=O)c2ccc(C(=O)N(C)C)cc2)c1 [Example 32, 4-{[(3-{[2-(2-Hydroxyethyl)-5-methoxyphenyl]amino}quinoxalin-2-yl)amino]sulfonyl}-N,N-dimethylbenzamide]",250 nM,–
"COc1cc(CN(C)C)cc(Nc2nc3ccccc3nc2NS(=O)(=O)c2cn(C)cn2)c1 [Example 95, N-[3-({3-[(Dimethylamino)methyl]-5-methoxyphenyl}amino)quinoxalin-2-yl]-1-methyl-1H-imidazole-4-sulfonamide]",1100 nM,–
"COc1ccc(CCCO)c(Nc2nc3ccccc3nc2NS(=O)(=O)C2CCS(=O)(=O)C2)c1 (stereo not drawn) [Example 63, N-(3-{[2-(3-Hydroxypropyl)-5-methoxyphenyl]amino}quinoxalin-2-yl)tetrahydrothiophene-3-sulfonamide 1,1-dioxide]",130 nM,–
"COc1cc(Nc2nc3ccccc3nc2NS(C)(=O)=O)cc(C(=O)N2CCOCC2)c1 [Example 6, N-(3-{[3-methoxy-5-(morpholin-4-ylcarbonyl)phenyl]amino}quinoxalin-2-yl)methanesulfonamide]",5620 nM,–
"COc1ccc(CCO)c(Nc2nc3ccccc3nc2NS(=O)(=O)C2CCCCC2)c1 [Example 45, N-(3-{[2-(2-Hydroxyethyl)-5-methoxyphenyl]amino}quinoxalin-2-yl) cyclohexanesulfonamide]",57 nM,–
"COc1ccc(CCS(C)(=O)=O)c(Nc2nc3ccccc3nc2NS(=O)(=O)CCCS(C)(=O)=O)c1 [Example 59, N-[3-({5-Methoxy-2-[2-(methylsulfonyl)ethyl]phenyl}amino)quinoxalin-2-yl]-3-(methylsulfonyl)propane-1-sulfonamide]",350 nM,–
"CCS(=O)(=O)Nc1nc2ccccc2nc1Nc1cc(OC)ccc1CCO [Example 38, N-(3-{[2-(2-Hydroxyethyl)-5-methoxyphenyl]amino}quinoxalin-2-yl)ethanesulfonamide]",60 nM,–
"COc1ccc(CCCO)c(Nc2nc3ccccc3nc2NS(=O)(=O)C(C)C)c1 [Example 50, N-(3-{[2-(3-Hydroxyproxyl)-5-methoxypheyl]amino}quinoxalin-2-yl)propane-2-sulfonamide]",72 nM,–
"COc1ccc(CCS(C)(=O)=O)c(Nc2nc3ccccc3nc2NS(=O)(=O)c2ccccc2)c1 [Example 55, N-[3-({5-Methoxy-2-[2-(methylsulfonyl)ethyl]phenyl}amino)quinoxalin-2-yl]benzenesulfonamide]",42 nM,–
